The text below walks through data of patent publication US20240122938A1, “METHODS AND COMPOSITIONS FOR TREATING UVEAL MELANOMA” (INSERM (INSTITUT NATIONAL DE LA SANTÉ ET DE LA RECHERCHE …, priority 2019, published 2024).

For the experiment, the system named is metastatic OMM1 xenografts. As to the kind of experiment: Subcutaneous tumor xenograft. The class given is in vivo, athymic nude mice. The protocol:
FIG. 2. Effect of ABT-263 on tumor growth in vivo effects. (A) Primary Mel270 and (B) metastatic OMM1 uveal melanoma cells were subcutaneously engrafted into athymic nude mice. Once the tumours reached 100 mm3, mice were treated daily with ABT-263. The arrow indicates the start of the treatment. The growth tumor curves were determined by measuring the tumor volume using the equation V=(L Å˜W2)/2. […] (C-D) Sub-cutaneous tumor weight from control (Ct) and ABT-263-treated mice is shown. Animal experiments were performed in accordance with French law and approved by a local institutional ethical committee. The animals were maintained in a temperature-controlled facility (22° C.) on a 12-h light/dark cycle and provided free access to food (standard laboratory chow diet from UAR, Epinay-S/Orge, France). Human Mel270 uvealmelanoma cells were subcutaneously inoculated into 8-week-old female, immune-deficient, athymic, nude FOXN1nu mice (Harlan Laboratory). When the tumors became palpable (0.1-0.2 cm3), the mice received an intraperitoneal injection of ABT-263 (50 mg/kg), dissolved in 10% DMSO 6 times per week. Control mice were injected with DMSO alone. The growth tumor curves were determined after measuring the tumor volume using the equation V=(L×W2)/2. At the end of the experiment, the mice were euthanized by cervical dislocation.

Consider `CC1(C)CCC(c2ccc(Cl)cc2)=C(CN2CCN(c3ccc(C(=O)NS(=O)(=O)c4ccc(N[C@H](CCN5CCOCC5)CSc5ccccc5)c(S(=O)(=O)C(F)(F)F)c4)cc3)CC2)C1` [ABT-263, 4-[4-[[2-(4-chlorophenyl)-5,5-dimethyl-1-cyclohexen-1-yl]methyl]-1-piperazinyl]-N-[[4-[[(1R)-3-(4-morpholinyl)-1-[(phenylthio)methyl]propyl]amino]-3-[(trifluoromethyl)sulfonyl]phenyl]sulfonyl]-benzamide], for which the “excised tumor weight versus control group” value (end of experiment) was “weighed significantly less”. In addition, the tumor growth entry (metastatic OMM1 xenografts, in some mice total tumor disappearance) is recorded as “marked tumor regression”.
